Where two headings read alike, the source gives them in different places. Numbered stars: 1 amine (or outer) side, 2 acyl side, 3 side chain; on linkers, the order of the positions; unused ones are H or OH. Bridge positions count the residues as written; N and C are the ends. Square brackets hold non-standard residues; d marks the D form. Peptide text beside a SMILES is read from it. * marks the point of attachment. Benzothiophen(2-yl)carbonyl = O=C(c1cc2ccccc2s1)*; X2 = CC[C@H](C)[C@@H](N[*:1])[C@@H](O)CC(=O)[*:2]; NMeY = CN[C@@H](Cc1ccc(O)cc1)C(=O)O; dNMeL = CN[C@H](CC(C)C)C(=O)O; Hiv = CC(C)[C@H](O)C(=O)O; Aib = CC(C)(N)C(=O)O Bounds are passed on as bounds.

In data set [1] the test system is MT-2 cells.
Data set [2] concerns HIV-1 recombinant virus (NL4.3 Luc). The class given is cell-based. The note with it: PBMCs.
For data set [3] the test system is unchanged. The class given is cell-based. The note with it: MT-2 cells.
Data set [4] deals with HCoV-229E. The class given is cell-based.
For data set [5], the system named is Huh-7 cells (human hepatoma cell line).
For data set [6], the system named is SARS-CoV-2. The data set is described as follows: APLICOV-PC clinical study in patients hospitalised for COVID-19: efficacy. The data set is classed as in vivo, human.
For data set [7], the system named is IL6, IL8, IL1β and TNF-α secretion. The data set is described as follows: Plitidepsin pre-treatment of THP-1 NFκB luc cells before Resiquimod: cytokines. The class given is cell-based, human. The note with it: 1, 10 or 50 nM added 8 hours before Resiquimod 2.5 or 5 µg/mL; measured at 24 hours. Here is the method:
(§1) In a further in vitro experiment, the effect of plitidepsin (APL) pre-treatment on THP-1 cells was studied. Using a THP-1 NFκB luc line, 1, 10 or 50 nM of APL or DMSO (0.2%) was added 8 hours before stimulus with Resiquimod (RQ) at 2.5 or 5 µg/mL. RQ is a TLR⅞ agonist and mimics ssRNA. At 24 hours the level of cytokines or cell viability was measured.

The test system of data set [8] is alveolar macrophages. Nature of the data set: LPS animal inflammation model: macrophages in bronchoalveolar lavage by flow cytometry. The data set is classed as in vivo, mouse. The following applies: mice 1 mg/kg single i.v., LPS 20 µg/kg i.p. The source says: Three hours later, bronchoalveolar lavages were collected.
In general terms: A flow cytometer gives signals particle by particle.

For data set [9], the system named is TNFα. The data set is described as follows: Resiquimod-triggered TNFα in BALF of mice. The class given is in vivo. The following applies: mice 1 mg/kg i.v. 1 hour before 50 µg/mouse intranasal resiquimod; 1 and 3 hours.
Data set [10] relates to THP-1 cells. The data set is described as follows: Plitidepsin pre-treatment of THP-1 NFκB luc cells before Resiquimod: cell viability. The class given is cell-based, human. The following applies: 1, 10 or 50 nM added 8 hours before Resiquimod 2.5 or 5 µg/mL; measured at 24 hours. Here is the method:
as §1

Consider `CC[C@H](C)[C@H]1NC(=O)[C@@H](NC(=O)[C@@H](CC(C)C)NC)[C@@H](C)OC(=O)[C@H](Cc2ccc(OC)cc2)N(C)C(=O)[C@@H]2CCCN2C(=O)[C@H](CC(C)C)NC(=O)C(C)(C)NC(=O)C[C@@H]1O` [Compound 3] (H-[dNMeL]T[X2][Aib]LP[NMeY](Me); ester 2-C), for which the “Toxic concentrations (not reached at)” value in data set [1] was greater than 57.3 µM.
`CC[C@H](C)[C@H]1NC(=O)[C@@H](NC(=O)[C@H](CC(C)C)N(C)C(=O)[C@@H]2CCCN2C(=O)C(C)=O)[C@@H](C)OC(=O)[C@H](Cc2ccc(OC)cc2)N(C)C(=O)[C@@H]2CCCN2C(=O)[C@H](CC(C)C)NC(=O)[C@@H](C)C(=O)[C@H](C(C)C)OC(=O)C[C@@H]1O` [Compound 8]: the Antiviral activity result in [2] and in [3] was “antiviral activity” each time.
As for `CC[C@H](C)[C@H]1NC(=O)[C@@H](NC(=O)[C@@H](CC(C)C)N(C)C(=O)[C@@H]2CCCN2C(=O)[C@H](C)NC(=O)[C@@H](Cc2ccccc2)NC(=O)OC(C)(C)C)[C@@H](C)OC(=O)[C@H](Cc2ccc(OC)cc2)N(C)C(=O)[C@@H]2CCCN2C(=O)[C@H](CC(C)C)NC(=O)[C@@H](C)C(=O)[C@H](C(C)C)OC(=O)C[C@@H]1O` [Compound 9], the “Antiviral activity (GFP fluorescence images)” value in data set [4] is listed as “remarkable antiviral properties are seen across all concentrations”. Besides, the “Cell growth / viability (DAPI fluorescence images)” value in [5] was “cells remain viable at all concentrations”.
The like results for `CC[C@H](C)[C@H]1NC(=O)[C@@H](NC(=O)[C@@H](CC(C)C)N(C)C(=O)c2cc3ccccc3s2)[C@@H](C)OC(=O)[C@H](Cc2ccc(OC)cc2)N(C)C(=O)[C@@H]2CCCN2C(=O)[C@H](CC(C)C)NC(=O)[C@H](C(C)C)OC(=O)C[C@@H]1O` [Compound 10] ({Benzothiophen(2-yl)carbonyl}-[dNMeL]T[X2][Hiv]LP[NMeY](Me); ester 2-C) were, in that order, “remarkable antiviral properties are seen across all concentrations” and “cells remain viable at all concentrations”.
Regarding `CC[C@H](C)[C@H]1NC(=O)[C@@H](NC(=O)[C@H](CC(C)C)N(C)C(=O)[C@@H]2CCCN2C(=O)C(C)=O)[C@@H](C)OC(=O)[C@H](Cc2ccc(OC)cc2)N(C)C(=O)[C@@H]2CCCN2C(=O)[C@H](CC(C)C)NC(=O)[C@@H](C)C(=O)[C@H](C(C)C)OC(=O)C[C@@H]1O` [PLD, Plitidepsin], in [4], the “Antiviral activity (GFP fluorescence images)” value was “remarkable antiviral properties are seen across all concentrations”. The “Median time for PCR conversion” value in data set [6] amounted to 7 days. In data set [6] (interim results), the “Evaluable patients requiring post PLD specific anti COVID 19 therapy” value is given as 2 out of 8; the “Evaluable patients with disease control and major clinical improvements” value was 6 out of 8. Also, in data set [6] (interim results, 1.5 mg and 2 mg cohorts), the “Evaluable patients with PCR conversion to negative” value is 6 out of 8. Besides, in [6] (interim results, 9 patients), the Deaths on study entry is “no deaths on study” and the “Need for mechanical ventilation or ICU admission” value is listed as “none of the patients required mechanical ventilation or ICU admission”. Also, in data set [6] (interim results, range (7 -19)), the “Median time to hospital discharge” value amounted to 8 days. Further, the “Secretion of IL6, IL8, IL1β and TNF-α induced by RQ” value in data set [7] is “inhibited secretion of the pro-inflammatory cytokines: IL6, IL8, IL1β and TNF-α”. For the same compound, the “Macrophages in bronchoalveolar lavage” value in data set [8] is on record as “reduces the number of macrophages in BAL”. In addition, the “Resiquimod-induced TNFα production in BALF” value in [9] was “prevented the increased production of TNFα”. The “Cell growth / viability (DAPI fluorescence images)” value in data set [5] is on record as “cells remain viable at all concentrations”. For the same compound, in data set [10], the Cell viability result is on record as “does not decrease viability over the untreated control”.

The record behind these values is patent US20230295236A1, “COMPOUNDS FOR USE IN INFLAMMATORY CONDITIONS” (priority 2020, published 2023).
